Earlier results on six molecules are cited in patent US20040077556A1, “Compositions and methods for promoting weight loss, thermogenesis, appetite suppression, lean muscle mass, increasing metabolism and boosting energy levels, and use as a dietary supplement in mammals” (priority 2002, published 2004).

Where two headings read alike, the source gives them in different places.

Data set [1] concerns brown adipose tissue thermogenesis.
For data set [2] the following is noted: cold-exposed rats.

Take `O=C(O[C@@H]1Cc2c(O)cc(O)cc2O[C@@H]1c1cc(O)c(O)c(O)c1)c1cc(O)c(O)c(O)c1` [EGCG, (2R,3R)-2-(3,4,5-Trihydroxyphenyl)-3,4-dihydro-1[2H]-benzopyran-3,5,7-triol 3-(3,4,5-trihydroxybenzoate)]: the increase in thermogenesis in data set [1] (EGCG alone, 200 μM) was 40%. Further, in data set [1] (EGCG alone, 50 and 100 μM), the effect on thermogenesis result was “no effect”.
Turning to `O=c1c(O)c(-c2ccc(O)c(O)c2)oc2cc(O)ccc12` [Fisetin, 3,3′,4′,7-tetrahydroxyflavone], the “increase in cAMP” value in the data set on cAMP is on record as “dose-dependent increase”.
With `O=c1c(O)c(-c2ccc(O)c(O)c2)oc2cc(O)cc(O)c12` [quercetin, 3,3′,4′,5-7-pentahydroxyflavone], in the data set on cAMP, the “increase in cAMP” value was “dose-dependent increase”.
Regarding `Cn1c(=O)c2c(ncn2C)n(C)c1=O` [caffeine], the effect on thermogenesis result in data set [1] (caffeine alone) is recorded as “little or no effect”.
For `NCCc1ccccc1` [PEA, phenylethylamine], the “decrease of food intake” value (15 mg per kg of bodyweight per day) is on record as “roughly one-third”. For the same molecule, the “maximum reduction of food intake” value (50 mg per kg of bodyweight) is on record as “roughly twenty”. For the same molecule, the “reduction of food intake” value (15-50 mg per kg of bodyweight) is 20-30%. In addition, the “tolerance to appetite-reducing effect” value (after four weeks) is reported as “no tolerance”.
Consider `Cn1c(=O)c2[nH]cnc2n(C)c1=O.NCCN` [aminophylline, theophylline ethylenediamine], for which the “increase of maximum thermogenesis” value in data set [2] (fed) is listed as 14.4%; in data set [2] (unfed), 19.4%. In addition, in data set [2] (unfed, to levels seen in fed rats, dropped 18.2 percent without pretreatment), the “noradrenaline-stimulated thermogenesis after pretreatment” value is on record as “restored”.
